“And” between values parts separate entries of the source, which are not always exact repeats. Equal values may be shown once.

Compound `c1ccc2c(c1)ccc1ccccc12` [Phenanthrene] gave a melting point of 100 °C.

The compound `O=C(O)Cc1c(F)cccc1F` [2,6-difluorophenylacetic acid] yielded a melting point of 101 °C. For `O=[N+]([O-])c1ccc(Cc2ccccn2)c([N+](=O)[O-])c1` [2-(2,4-Dinitrobenzyl)pyridine], the melting point was 92 °C. Consider `O=C=N/c1cc(ccc1C)N=C=O` [2,4-Diisocyanato-1-methylbenzene], for which the melting point was 20.5 °C. With `N#CC1(c2ccccc2)C=Cc2ccccc21` (centres undefined) [1-phenyl-1H-indene-1-carbonitrile], the melting point is 77 °C. With `NS(=O)(=O)Cc1ccccc1` [alpha-toluenesulfonamide] the figure was 103 °C. Regarding `CC#CC` [2-butyne], the melting point is -32 °C.

In the case of `O=C(O)c1cc(=O)[nH]c(=O)[nH]1` [Orotic Acid], the melting point was 346 °C.

For the compound `O=C(O)c1ccccc1[N+](=O)[O-]` [2-nitrobenzoic acid], the melting point was 148 °C.

For the compound `Cc1cc(Cl)cc([N+](=O)[O-])c1N` [4-chloro-2-methyl-6-nitroaniline], the melting point amounted to 122 °C.

`Cc1ccc(Br)cc1` [1-Bromo-4-methylbenzene] showed a melting point of 28.5 °C.

Compound `O=C(O)CCCc1ccc(F)cc1` [4-(4-fluorophenyl)butyric acid] came in with a melting point of 45 °C. In the case of `Clc1cc(Cl)cc(I)c1` [1,3-dichloro-5-iodobenzene] it was 57 °C; in that of `CC1(C)C(=O)NC(=O)N1CO` [1-hydroxymethyl-5,5-dimethylhydantoin], 105 °C. In the case of `Cc1cc(C)cc(O)c1` [3,5-dimethylphenol] it was 63.4 °C and 65.5 °C; in that of `N#CCOc1ccccc1Br` [2-bromophenoxyacetonitrile], 49 °C; in that of `CC1CCc2cc(F)cc3c(=O)c(C(=O)O)cn1c23` (centres undefined) [flumequine], 253 °C. `Nc1cc(-c2ccccc2)c(O)c(-c2ccccc2)c1` [5'-Amino-1,1':3',1''-terphenyl-2'-ol] came in with a melting point of 149 °C. With `CCC(C)c1ccccc1O` (centres undefined) [2-sec-butylphenol], the melting point amounted to 10 °C. With `COc1ccc(C=O)cc1OC` [3,4-dimethoxybenzaldehyde] the figure was 44 °C; with `CCCCCCCCCCS(=O)(=O)Cl` [1-decanesulfonyl chloride], 32 °C. As to `CC(=O)Nc1ccccc1C#Cc1ccccc1` [N-[2-(phenylethynyl)phenyl]acetamide], the melting point worked out at 119 °C. The compound `CCCCCCCCCc1ccc(B(O)O)cc1` [4-n-nonylbenzeneboronic acid] returned a melting point of 84 °C. In the case of `c1ccc([C@H]2CN3CCSC3=N2)cc1` [Levamisole] it was 264 °C; in that of `CS` [Methanethiol], -121 °C.

On to `COc1ccccc1C(=O)O` [2-methoxybenzoic acid], for which the melting point amounted to 101 °C. In the case of `Oc1cc(Cl)ccc1Oc1ccc(Cl)cc1Cl` [5-Chloro-2-(2,4-dichlorophenoxy)phenol] it was 57 °C; in that of `Nc1ccccc1[N+](=O)[O-]` [o-nitroaniline], 73 °C; in that of `Cc1cc(Br)c(C)cc1Br` [2,5-Dibromo-p-xylene], 74 °C. In the case of `CC(=O)c1ccc(I)cc1` [1-(4-Iodophenyl)ethanone] it was 84.8 °C and 85.3 °C; in that of `CC(=O)Nc1ccc(C(=O)O)cc1` [4-acetamidobenzoic acid], 260 °C; in that of `Brc1ccc2ncsc2c1` [6-bromobenzothiazole], 53 °C. Take `CC1=C(/C=C/C(C)=C/C=C/C(C)=C/C=C/C=C(C)/C=C/C=C(C)/C=C/C2=C(C)CCCC2(C)C)C(C)(C)CCC1` [B-carotene]: the melting point is 183 °C (2×) and 180 °C. In the case of `Clc1cc(Cl)c(Cl)c(Cl)c1` [1,2,3,5-Tetrachlorobenzene] it was 51.5 °C. In the case of `NC(=S)c1ccccn1` [pyridine-2-thiocarboxamide] it was 123 °C; in that of `CCOC(=O)c1csnn1` [ethyl 1,2,3-thiadiazole-4-carboxylate], 84 °C.

Regarding `CCCCCCI` [1-iodohexane], the melting point was -75 °C.

The compound `O=C(O)c1cc(O)ccc1[N+](=O)[O-]` [5-hydroxy-2-nitrobenzoic acid] yielded a melting point of 170 °C.

Consider `CCC(=O)OC(=O)CC` [Propanoic anhydride], for which the melting point was -45 °C. In the case of `C[C@]12CC[C@@H]3c4ccc(O)cc4CC[C@H]3[C@@H]1CC[C@@H]2O` [beta-estradiol] it was 177 °C; in that of `N#C/C=C/C#N` [(2E)-But-2-enedinitrile], 97 °C.

`Nc1cc2ccccc2oc1=O` [3-aminocoumarin] had a melting point of 136 °C. Consider `NCCCCCO` [5-amino-1-pentanol], for which the melting point stood at 36 °C. In turn, `C(#Cc1ccc2ccccc2c1)c1ccccc1` [2-(phenylethynyl)naphthalene] had a melting point of 117 °C. With `CCCCCCCCCCCCN` [Dodecan-1-amine] the figure was 29 °C; with `CC(=O)OC1CCC2C3CCC4CC=CCC4(C)C3CCC12C` (centres undefined) [androst-2-en-17-yl acetate], 94 °C. `N#Cc1ccc(N=C=S)cc1` [4-cyanophenyl isothiocyanate] had a melting point of 120 °C.

As for `Cc1ccc(C(C)C)cc1O` [5-Isopropyl-2-methylphenol], the melting point was determined as 2 °C. In turn, `O=C(O)CCc1ccccc1` showed a melting point of 49 °C. With `N#CCc1cccc(Br)c1` [3-bromophenylacetonitrile] the figure was 27 °C; with `C[Si]1(C)O[Si](C)(C)O[Si](C)(C)O[Si](C)(C)O[Si](C)(C)O1`, -44 °C; with `CCCCBr` [1-bromobutane], -112 °C.

Regarding `c1ccc(Nc2ccccc2)cc1` [diphenylamine], the melting point is 52 °C and 53.5 °C and 54 °C. With `CCOc1cc(C)ccc1O` [2-ethoxy-4-methylphenol] the figure was 29 °C. With `Oc1ccc(Cl)cc1Cl` [2,4-dichlorophenol] the figure was 43 °C and 45 °C and 42.5 °C.

`C[C@]12CC[C@@H]3c4ccc(O)cc4CC[C@H]3[C@@H]1CC[C@@H]2O` [estradiol] gave a melting point of 176 °C. `C[C@H](O)[C@@H](C)O` [meso-2,3-butanediol]: the melting point was 34.5 °C and 33 °C. With `O=C(O)c1cccc(Br)c1` [3-bromobenzoic acid] the figure was 156 °C; with `NC(=O)c1cccnc1` [nicotinamide], 130 °C.

Turning to `O=C(O)Cc1cc(O)ccc1O` [2,5-dihydroxyphenylacetic_acid], the melting point came to 127 °C.

Regarding `Cc1ccc(N)cc1N` [2,4-diaminotoluene], the melting point was 99 °C. `CCCC(N)=O` [butyramide] gave a melting point of 115 °C.

Regarding `COc1ccc(N)c([N+](=O)[O-])c1` [4-methoxy-2-nitroaniline], the melting point worked out at 127 °C.

`O=C(O)c1cc2cc(Br)ccc2c(Br)c1O` [1,6-dibromo-2-hydroxynaphthalene-3-carboxylic acid] gave a melting point of 251 °C. With `Cc1ccnc(NS(=O)(=O)c2ccc(N)cc2)n1` [sulfamerazine] the figure was 236 °C; with `N#CC(=Cc1ccc(Cl)cc1)C(N)=O` [3-(4-chlorophenyl)-2-cyanoacrylamide], 101 °C; with `Clc1ccc(Cl)nn1` [3,6-dichloropyridazine], 68 °C. `CCCCCCCCCCCCCCCCCC(=O)O[C@H]1[C@H](O[C@@H]2[C@@H](C)[C@H](O[C@H]3C[C@@](C)(OC)[C@@H](O)[C@H](C)O3)[C@@H](C)C(=O)O[C@H](CC)[C@@](C)(O)[C@H](O)[C@@H](C)C(=O)[C@H](C)C[C@@]2(C)O)O[C@H](C)C[C@@H]1N(C)C` returned a melting point of 102 °C. `Nc1ccc(Cl)cc1N` [4-Chlorobenzene-1,2-diamine]: the melting point is 68.5 °C. In the case of `CCC1OC(=O)C(C)C(OC2CC(C)(OC)C(O)C(C)O2)C(C)C(OC2OC(C)CC(N(C)C)C2O)C(C)(O)CC(C)C(=O)C(C)C(O)C1(C)O` (centres undefined) it was 135 °C; in that of `O=C(O)C1CC=CCC1` (centres undefined) [3-cyclohexene-1-carboxylic acid], 17 °C. Consider `CCCCCCS` [1-hexanethiol], for which the melting point is -80 °C. Regarding `O=S1(=O)CC=CC1` [3-sulfolene], the melting point came out at 65 °C. Regarding `O=C(N[C@@H](CO)C(=O)O)OCc1ccccc1` [N-benzyloxycarbonyl-l-serine], the melting point came out at 119 °C.

Compound `[2H]C([2H])([2H])C([2H])([2H])C([2H])([2H])C([2H])([2H])C([2H])([2H])C([2H])([2H])C([2H])([2H])C([2H])([2H])C([2H])([2H])[2H]` [(~2~H_20_)Nonane] came in with a melting point of -53 °C. In the case of `NC(N)=S` [Thiourea] it was 176 °C; in that of `Nc1ccc(O)c(C(=O)O)c1` [5-aminosalicylic acid], 280 °C; in that of `CCOC(=O)/C(C(N)=S)=C1/NN=C(c2ccc(Cl)cc2)O1`, 176 °C.

`CCNc1nc(NC(C)(C)C)nc(SC)n1` [terbutryne]: the melting point was 104 °C. `CCOC(=O)CCC(=O)OCC` [diethyl_succinate]: the melting point was -20 °C.

The compound `c1cnc2c(c1)ccc1cccnc12` [1,10-phenanthroline, anhydrous] displayed a melting point of 118 °C.

The compound `O=C(C(=O)c1ccccc1)c1ccccc1` [Benzil] showed a melting point of 95 °C. For the compound `O=C(/C=C/c1ccccc1)c1ccc(Cl)cc1` [4'-chlorochalcone], the melting point was determined as 99 °C. With `C/C=C\C(C)(C)C` [4,4-dimethyl-cis-2-pentene] the figure was -135 °C; with `C[C@H]1CCCC[C@@H]1O` (relative stereo) [trans-2-methylcyclohexanol], -21 °C.

`Oc1ccccc1` [phenol]: the melting point was found to be 41 °C. Take `O=C(O)/C=C/c1ccc(F)cc1F` [trans-2,4-difluorocinnamic acid]: the melting point was determined as 217 °C. With `CC(C)CN` [isobutylamine], the melting point was -85 °C. In the case of `ON(/C=C/c1ccccc1)c1ccccc1` [N-hydroxy-N-[(E)-2-phenylethenyl]aniline], the melting point is 120 °C.

Values taken from the Bradley open melting point set (2014).
